The values that follow come from article PMC11873650 (Acta Pharmaceutica Sinica. B, 2024).

The subject of data set [1] is phosphorylated β-Catenin (p-β-Catenin). The experiment in a line: Western blot of β-Catenin phosphorylation in MIA PaCa-2 cells. The class given is cell-based, human. As to conditions: for level of p-β-Catenin: MIA PaCa-2 cells, 1 μmol/L, 72 h.
The target in data set [2] is phosphorylated PAK4 (p-PAK4) (Homo sapiens, UniProt O96013). The experiment in a line: Western blot of PAK4 phosphorylation in MIA PaCa-2 cells. As to conditions: for level of p-PAK4: MIA PaCa-2 cells, 1 μmol/L, 72 h. The data set is classed as cell-based.
phosphorylated PAK4 (p-PAK4), sequence (O96013 whole entry): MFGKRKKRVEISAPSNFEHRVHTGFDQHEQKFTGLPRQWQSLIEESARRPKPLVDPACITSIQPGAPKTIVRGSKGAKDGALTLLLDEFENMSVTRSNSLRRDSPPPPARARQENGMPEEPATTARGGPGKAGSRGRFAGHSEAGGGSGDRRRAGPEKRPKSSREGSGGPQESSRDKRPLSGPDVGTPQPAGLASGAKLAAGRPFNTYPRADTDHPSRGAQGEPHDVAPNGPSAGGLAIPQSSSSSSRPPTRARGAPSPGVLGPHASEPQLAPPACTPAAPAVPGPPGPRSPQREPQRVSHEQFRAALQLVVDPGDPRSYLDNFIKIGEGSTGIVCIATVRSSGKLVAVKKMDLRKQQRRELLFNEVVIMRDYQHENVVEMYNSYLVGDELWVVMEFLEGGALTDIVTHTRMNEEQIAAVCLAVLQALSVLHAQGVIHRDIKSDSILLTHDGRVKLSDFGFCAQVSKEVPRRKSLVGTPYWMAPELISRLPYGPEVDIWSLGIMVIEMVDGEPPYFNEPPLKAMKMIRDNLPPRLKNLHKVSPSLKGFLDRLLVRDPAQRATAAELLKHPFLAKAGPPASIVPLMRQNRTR
The next data set in a line: Pharmacokinetics in rats. As to conditions: rat, plasma. The data set is classed as in vivo.
The next data set has as its system MIA PaCa-2 xenograft. As to conditions: 100 mg/kg q.d. intraperitoneally.
The subject of the next data set is Pan02 allograft. The experiment in a line: Pan02 syngeneic model. The data set is classed as in vivo, C57BL/6 mice. As to conditions: 100 mg/kg intraperitoneally three times per five days, 26 days.

Consider `Nc1ccc(/C=C/C(=O)N2CCc3c(oc4c(-c5ccc(F)cc5)cc(-c5ccc(C(=O)N6CCOCC6)nn5)cc34)C2)cn1` [Compound 19, (E)-3-(6-Aminopyridin-3-yl)-1-(8-(4-fluorophenyl)-6-(6-(morpholine-4-carbonyl)pyridazin-3-yl)-3,4-dihydrobenzofuro[2,3-c]pyridin-2(1H)-yl)prop-2-en-1-one], for which, in data set [1], the “level of p-β-Catenin” value is recorded as “superior to 4”. Also, in data set [2], the “level of p-PAK4” value is on record as “superior to 4”.

In the case of `Nc1ccc(/C=C/C(=O)NCc2cc3cc(-c4ccc(C(=O)N5CCC(F)(F)CC5)cc4)cc(-c4ccc(F)cc4)c3o2)cn1` [Compound 4], the IC50 worked out at 2070 nM in data set [1] (Homo sapiens, MIA PaCa-2, 72 h, read-out: IC50 against p-β-Catenin) and 1890 nM in data set [2]. The AUC(0-t) turned out to be 94400 ng·h/mL in “Pharmacokinetics in rats” (iv, 1 mg/kg) and 55500 ng·h/mL in “Pharmacokinetics in rats” (po, 3 mg/kg). Moreover, the mortality entry in the data set with MIA PaCa-2 xenograft (20-day study) was “two mice”. For the same molecule, the “tumor growth inhibition rate (TGI)” value in the data set with MIA PaCa-2 xenograft (20 days) turned out to be 77.8%. Moreover, in the data set with Pan02 allograft, the tumor growth inhibition entry is listed as “modest tumor growth inhibition”.

Take `Nc1ccc(/C=C/C(=O)N2CCc3c(oc4c(-c5ccc(F)cc5)cc(-c5ccc(C(=O)N6CCC(F)(F)CC6)nn5)cc34)C2)cn1` [Compound 18, (E)-3-(6-Aminopyridin-3-yl)-1-(6-(6-(4,4-difluoropiperidine-1-carbonyl)pyridazin-3-yl)-8-(4-fluorophenyl)-3,4-dihydrobenzofuro[2,3-c]pyridin-2(1H)-yl)prop-2-en-1-one]: the “level of p-β-Catenin” value in data set [1] is given as “superior to 4”. The “level of p-PAK4” value in data set [2] was “superior to 4”.
